According to US20080009511A1, “Cancer treatment with compounds inhibiting PKC alpha” (priority 2004, published 2008):

Columns and labels:
[1] = tested on: A431 human epidermoid carcinoma cells; assay: Cell viability assay (trypan blue dye exclusion), viable cells counted at day 6; format: cell-based; details: 10 micromoles; for Treated (cell number × 10^5): about 4×10^4 cells seeded, untreated 5.4 ± 0.4; for % inhibiton: growth vs untreated
Procedure: (§1) The following cancer cells were maintained in Dulbecco's modified Eagle medium (DMEM) supplemented with 10 percent bovine calf serum. Cells were seeded for 24 hours. Then they were treated with PKC inhibitors or left untreated. The cells were then collected periodically and evaluated using trypan blue dye exclusion to assess viability using the method described by C Y Chen, et al., in J. Biol. Chem. 273:16700-16709. Cultures containing about 4×10^4 cells were treated with 5 micromoles of Gö7874 (except that PC3 prostate cancer cells were treated with 10 micromoles) and the viable cells were counted at day 6. […] Cultures containing about 4×10^4 cells were treated with or without 10 micromoles of Gö6850 and the viable cells were counted at day 6. […] Cultures containing about 4×10^4 cells were treated with or without 10 micromoles of NGIC-I and the viable cells were counted at day 6. […] Cultures containing about 4×10^4 cells were treated with or without 10 micromoles of Ro31-7549 and the viable cells were counted at day 6. […] Cultures containing about 4×10^4 cells were treated with or without 10 micromoles of Ro31-8220 and the viable cells were counted at day 6. […] Cultures containing about 4×10^4 cells were treated with or without 10 micromoles of Ro31-8425 and the viable cells were counted at day 6. […] Cultures containing about 4×10^4 cells were treated with or without 10 micromoles of Ro31-0432 and the viable cells were counted at day 6.

[2] = tested on: AGS human gastric cancer cells; assay: as above; format: cell-based; details: 10 micromoles; for Treated (cell number × 10^5): about 4×10^4 cells seeded, untreated 2.4 ± 0.3; for % inhibiton: growth vs untreated
Procedure: as §1

[3] = tested on: H460 human lung cancer cells; assay: as above; format: cell-based; details: 10 micromoles; for Treated (cell number × 10^5): about 4×10^4 cells seeded, untreated 2.4 ± 0.2; for % inhibiton: growth vs untreated
Procedure: as §1

[4] = tested on: HT29 human colon cancer cells; assay: as above; format: cell-based; details: 10 micromoles; for Treated (cell number × 10^5): about 4×10^4 cells seeded, untreated 3.8 ± 0.4; for % inhibiton: growth vs untreated
Procedure: as §1

[5] = tested on: Hela human cervical cancer cells; assay: as above; format: cell-based; details: 10 micromoles; for Treated (cell number × 10^5): about 4×10^4 cells seeded, untreated 3.4 ± 0.4; for % inhibiton: growth vs untreated
Procedure: as §1

[6] = tested on: HepG2 human liver cancer cells; assay: as above; format: cell-based; details: 10 micromoles; for Treated (cell number × 10^5): about 4×10^4 cells seeded, untreated 4.2 ± 0.4; for % inhibiton: growth vs untreated
Procedure: as §1

[7] = tested on: Jurkat cells (a human acute T-cell leukemia cell line); assay: as above; format: cell-based; details: 10 micromoles; for Treated (cell number × 10^5): about 4×10^4 cells seeded, untreated 8.8 ± 0.4; for % inhibiton: growth vs untreated
Procedure: as §1

[8] = tested on: MDA-MB-468 human breast cancer cells; assay: as above; format: cell-based; details: 10 micromoles; for % inhibiton: growth vs untreated
Procedure: as §1

[9] = tested on: NBT-II human bladder cancer cells; assay: as above; format: cell-based; details: 10 micromoles; for Treated (cell number × 10^5): about 4×10^4 cells seeded, untreated 2.9 ± 0.4; for % inhibiton: growth vs untreated
Procedure: as §1

[10] = tested on: PANC-1 human pancreatic carcinoma cells; assay: as above; format: cell-based; details: 10 micromoles; for Treated (cell number × 10^5): about 4×10^4 cells seeded, untreated 2.1 ± 0.3; for % inhibiton: growth vs untreated
Procedure: as §1

[11] = tested on: PC3 human prostate cancer cells; assay: as above; format: cell-based; details: 10 micromoles; for Treated (cell number × 10^5): about 4×10^4 cells seeded, untreated 7.1 ± 0.3; for % inhibiton: growth vs untreated
Procedure: as §1

U251 human glioma cells = assay: as above; format: cell-based; details: 10 micromoles; for Treated (cell number × 10^5): about 4×10^4 cells seeded, untreated 9.6 ± 0.5; for % inhibiton: growth vs untreated
Procedure: as §1

KB oral cancer cells = assay: as above; format: cell-based, human; details: 10 micromoles; for Treated (cell number × 10^5): about 4×10^4 cells seeded, untreated 3.8 ± 0.4; for % inhibiton: growth vs untreated
Procedure: as §1

human cancer cells = assay: Cell viability assay, summary over the panel of cancer cells; format: cell-based; details: 10 micromoles; day 6; cell lines not named as going to apoptosis
Procedure: The following cancer cells were maintained in Dulbecco's modified Eagle medium (DMEM) supplemented with 10 percent bovine calf serum. Cells were seeded for 24 hours. Then they were treated with PKC inhibitors or left untreated. The cells were then collected periodically and evaluated using trypan blue dye exclusion to assess viability using the method described by C Y Chen, et al., in J. Biol. Chem. 273:16700-16709. Cultures containing about 4×10^4 cells were treated with or without 10 micromoles of Gö6850 and the viable cells were counted at day 6. […] Cultures containing about 4×10^4 cells were treated with or without 10 micromoles of NGIC-I and the viable cells were counted at day 6. […] Cultures containing about 4×10^4 cells were treated with or without 10 micromoles of Ro31-7549 and the viable cells were counted at day 6. […] Cultures containing about 4×10^4 cells were treated with or without 10 micromoles of Ro31-8220 and the viable cells were counted at day 6. […] Cultures containing about 4×10^4 cells were treated with or without 10 micromoles of Ro31-8425 and the viable cells were counted at day 6. […] Cultures containing about 4×10^4 cells were treated with or without 10 micromoles of Ro31-0432 and the viable cells were counted at day 6.

Compound | Treated (cell number × 10^5) [1] | % inhibiton [1] [%] | Treated (cell number × 10^5) [2] | % inhibiton [2] | Treated (cell number × 10^5) [3] | % inhibiton [3] [%] | Treated (cell number × 10^5) [4] | % inhibiton [4] [%] | Treated (cell number × 10^5) [5] | % inhibiton [5] | Treated (cell number × 10^5) [6] | % inhibiton [6] [%] | Treated (cell number × 10^5) [7] | % inhibiton [7] | % inhibiton [8] | Treated (cell number × 10^5) [9] | % inhibiton [9] | Treated (cell number × 10^5) [10] | % inhibiton [10] | Treated (cell number × 10^5) [11] | other results
N#CCCn1c2ccccc2c2c3c(c4c5ccccc5[nH]c4c21)C(=O)NC3 [NGIC-I, 12-propanenitrile,5,6,7,13-tetrahydro-5-oxo-12H-Indolo[2,3-a]pyrrolo[3,4-c]carbazole] | 2.7 × 10^5 | 49 | 1.7 × 10^5 | 30% | 1.6 × 10^5 | 32 | 3.2 × 10^5 | 15 | 0.3 × 10^5 | * (indicates the inhibitor causes significant cell death, and cell number is less than originally seeded cell number.) | 0.9 × 10^5 | 78 | 0.2 × 10^5 | * (indicates the inhibitor causes significant cell death, and cell number is less than originally seeded cell number.) | 78% | 0.9 × 10^5 | 73% | 1.2 × 10^5 | 44% | 3.7 × 10^5 | originally seeded cells survived [5]: 75%; originally seeded cells survived [7]: About 50%; % inhibiton [11]: 48%; Treated (cell number × 10^5) (U251 human glioma cells): 1.6 × 10^5; % inhibiton (U251 human glioma cells): 82%; cells that went to apoptosis upon treatment (KB oral cancer cells): all; Treated (cell number × 10^5) (KB oral cancer cells): 0 × 10^5; % inhibiton (KB oral cancer cells): * (indicates the inhibitor causes significant cell death, and cell number is less than originally seeded cell number.); inhibition of growth in contrast to untreated cells, range over the other treated cancer cells (human cancer cells): 25-82%
Cn1cc(C2=C(c3cn(CCCSC(=N)N)c4ccccc34)C(=O)NC2=O)c2ccccc21 [Ro31-8220] | 2.1 × 10^5 | 60 | 0 × 10^5 | * (indicates the inhibitor causes significant cell death, and cell number is less than originally seeded cell number.) | 0.4 × 10^5 | 85 | 0.6 × 10^5 | 85 | 6.0 × 10^5 | * (indicates the inhibitor causes significant cell death, and cell number is less than originally seeded cell number.) | 0.4 × 10^5 | 90 | 0.5 × 10^5 | 94% | * (indicates the inhibitor causes significant cell death, and cell number is less than originally seeded cell number.) | 0 × 10^5 | * (indicates the inhibitor causes significant cell death, and cell number is less than originally seeded cell number.) | 0 × 10^5 | * (indicates the inhibitor causes significant cell death, and cell number is less than originally seeded cell number.) | 2.7 × 10^5 | cells that went to apoptosis upon treatment [2]: all; cells that went to apoptosis upon treatment [5]: significant number; cells that went to apoptosis upon treatment [8]: significant number; Treated (cell number × 10^5) ([8]; about 4×10^4 cells seeded, untreated 6.1 ± 0.4): 0.2 ± 0.05 × 10^5; cells that went to apoptosis upon treatment [9]: all; cells that went to apoptosis upon treatment [10]: all; % inhibiton [11]: 62%; Treated (cell number × 10^5) (U251 human glioma cells): 1.4 × 10^5; % inhibiton (U251 human glioma cells): 85%; cells that went to apoptosis upon treatment (KB oral cancer cells): all; Treated (cell number × 10^5) (KB oral cancer cells): 0 × 10^5; % inhibiton (KB oral cancer cells): * (indicates the inhibitor causes significant cell death, and cell number is less than originally seeded cell number.); inhibition of growth in contrast to untreated cells, range over the other treated cancer cells (human cancer cells): 60-94%
